In patent publication US12503473B2, “Triazolopyrimidine compounds and their use in treating cancer” (Dizal (Jiangsu) Pharmaceutical Co., Ltd., priority 2018, dated 2025):

Experiments:
MCT1 = biological target: T1, MCT1 (Homo sapiens, UniProt P53985); test: Assay (c): FLIPR BCECF lactate influx in K562 cells; format: cell-based; settings: mean of at least three repeats, read-out: MCT1 FLIPR pIC50 (K562) (converted)
T1 construct: a human erythroleukemia line predominantly expressing MCT1, a small amount of MCT2 and no MCT4; host or cells: K562
T1 sequence (P53985 1-500): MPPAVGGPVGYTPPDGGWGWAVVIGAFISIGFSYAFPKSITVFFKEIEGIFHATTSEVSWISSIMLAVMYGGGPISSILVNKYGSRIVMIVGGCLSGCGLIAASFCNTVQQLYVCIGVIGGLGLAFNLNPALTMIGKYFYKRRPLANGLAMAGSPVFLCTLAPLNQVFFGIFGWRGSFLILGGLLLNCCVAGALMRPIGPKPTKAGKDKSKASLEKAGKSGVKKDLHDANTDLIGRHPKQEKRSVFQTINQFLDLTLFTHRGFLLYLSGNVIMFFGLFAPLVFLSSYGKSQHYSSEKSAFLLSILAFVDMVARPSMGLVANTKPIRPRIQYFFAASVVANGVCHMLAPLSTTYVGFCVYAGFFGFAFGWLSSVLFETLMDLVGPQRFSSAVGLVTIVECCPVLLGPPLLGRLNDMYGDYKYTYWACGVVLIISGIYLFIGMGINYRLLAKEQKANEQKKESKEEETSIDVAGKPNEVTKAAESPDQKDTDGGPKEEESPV
Procedure: (§1) Cells were loaded with the pH sensitive dye BCECFAM(Invitrogen #B11150) before being washed to remove excess dye and seeded into the assay plates—directly onto the test compound—at a density of 15,000 cells/well (NCI—H358) or 30,000 cells/well (K562), in 30 μl HBSS with 1 mM [final] […] Assay plates were lidded and spun in a plate centrifuge at 170 g for 1 minute. Plates were then wrapped in foil and incubated in the dark for 1 hour at room temperature.
(§2) Following incubation with test compound, 10 μl of 25 mM Sodium-L-Lactate (Sigma #L7022) made up in HBSS with 1 mM [final] […] This addition was performed directly on the FLIPR Tetra platform (Molecular Devices) as part of a real-time kinetic read protocol. […] A percentage change from base-line was calculated for each test well and values normalised to control wells—treated with either DMSO (maximum assay signal) or chemistry related to that described in this patent (minimum assay signal)—before fitting concentration response curves to determine an IC50 value.

MCT4 [1] = biological target: T2, MCT4 (Homo sapiens, UniProt O15427); test: Assay (a): lactate efflux from SK-Br-3 cells (lactate in media, 4 h); format: cell-based; design: a natively glycolytic human breast adenocarcinoma line predominantly expressing MCT4; host or cells: SK-Br-3; settings: mean of at least three repeats (Example 32, marked *, two repeats), read-out: MCT4 lactate efflux pIC50 (SKBR3) (converted)
T2 sequence (O15427 1-465): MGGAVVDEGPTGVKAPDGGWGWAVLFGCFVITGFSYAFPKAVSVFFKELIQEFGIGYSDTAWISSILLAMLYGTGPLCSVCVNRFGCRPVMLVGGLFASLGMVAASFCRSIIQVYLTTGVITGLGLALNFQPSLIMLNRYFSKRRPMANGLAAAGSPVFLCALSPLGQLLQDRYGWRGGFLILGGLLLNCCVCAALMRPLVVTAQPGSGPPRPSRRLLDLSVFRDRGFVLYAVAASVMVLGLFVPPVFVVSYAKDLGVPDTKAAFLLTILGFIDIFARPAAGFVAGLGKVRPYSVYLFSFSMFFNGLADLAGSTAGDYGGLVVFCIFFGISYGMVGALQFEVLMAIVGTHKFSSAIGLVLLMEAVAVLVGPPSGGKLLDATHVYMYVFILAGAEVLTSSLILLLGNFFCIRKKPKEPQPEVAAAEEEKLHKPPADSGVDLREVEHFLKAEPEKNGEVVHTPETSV
Procedure: Assay plates were lidded and incubated for 4 hours at 37° C. and 5% CO2.

MCT4 [2] = biological target: T2, MCT4; test: Assay (d): FLIPR BCECF lactate influx in INS-1 MCT4 cells; format: cell-based, rat; design: expressed in transfected cells; settings: INS-1 cells stably expressing human MCT4; mean of at least three repeats; read-out: MCT4 FLIPR pIC50 (INS-1) (converted)
Procedure: INS-1 MCT4 cells were generated through transfection of the parental cell background with the following DNA sequence, inserted into a pcDNA3.1 (ThermoFisher #V79020) mammalian expression vector:
The resultant cell pool was continually cultured at 37° C. and 5% CO2 under antibiotic selection in RPMI (Sigma #R0883) medium containing 1% L glutamine (Sigma #G7513), 10% FBS (Sigma #F7524), 10 mM [final] […] An individual clone was selected and expanded before being cryopreserved in a number of individual vials for continued use. Prior to testing in the biological assay, an individual INS-1 MCT4 cryovial was defrosted and continually passaged over a number of weeks—in the Geneticin selection media described previously—to obtain the requesite cell number.

MCT4 [3] = biological target: T2, MCT4; test: cell-based
Procedure: as §1, §2

[4] = tested on: NCI H358 subcutaneous xenograft; test: Human lung cancer xenograft model, VEGFR TKI combination; format: in vivo, female nude mice; settings: AZD2171 alone 3 mg/kg QD oral, 17 days dosing; p<0.001
Procedure: The in vivo efficacy of MCT4 inhibitors has been tested in human xenograft models. The NSCLC cell line NCI H358 can be grown as a subcutaneous xenograft in female nude mice and tumour volume calculated from bilateral caliper measurements. For efficacy studies three million NCI H358 cells were inoculated sub-cutaneously onto the left flank of the animal in a volume of 0.1 ml serum free media (RPMI) and matrigel. Animals were assigned into treatment groups 14 days after cell implantation and received either AZD2171 (3 mg/kg QD) (Wedge et al., (2005) Cancer Res. 65:4389-4400), a compound of Formula (I) (100 mg/kg BID) or the combination of both by oral gavage. A vehicle control of 0.5% hydroxy propyl methyl cellulose/0.1% Tween 80 was dosed twice daily given orally. Dosing was continued for 17 days and tumour volume, body weight and tumour condition were recorded twice weekly for the duration of the study.

IC50 (MCT1)	IC50 (MCT4 [1])	IC50 (MCT4 [2])	IC50 (MCT4 [3])	Compound	tumour regression compared to the vehicle group [4]
5010 nM	3.16 nM	3.16 nM	15.8 nM	Cc1nc2nc(C)c(C[C@@H]3CCN(c4cnc(-c5ccc(CN6CCCC6)cn5)cn4)C3)c(C)n2n1 [Example 81, (R)-2,5,7-trimethyl-6-((1-(5-(5-(pyrrolidin-1-ylmethyl)pyridin-2-yl)pyrazin-2-yl)pyrrolidin-3-yl)methyl)-[1,2,4]triazolo[1,5-a]pyrimidine]	
12600 nM	0.398 nM	5.01 nM	7.94 nM	Cc1nc2nc(C)c(C[C@@H]3CCN(c4cnc(-c5ccc(CN6CCOCC6)cc5)cn4)C3)c(C)n2n1 [Example 60, (R)-4-(4-(5-(3-((2,5,7-trimethyl-[1,2,4]triazolo[1,5-a]pyrimidin-6-yl)methyl)pyrrolidin-1-yl)pyrazin-2-yl)benzyl)morpholine]	
> 25100 nM	2.51 nM	3.16 nM	12.6 nM	Cc1nc2nc(C)c(O[C@@H]3CCN(c4cnc(-c5ccc([C@@H](C)N6CCOCC6)cc5)cn4)C3)c(C)n2n1 (single isomer, unassigned) [Example 86]	
> 25100 nM	3.16 nM	3.16 nM	12.6 nM	Cc1nc2nc(C)c(O[C@@H]3CCN(c4ccc(-c5ccc(CN6CCOCC6)nc5)cn4)C3)c(C)n2n1 [Example 75, (R)-4-((6′-(3-((2,5,7-trimethyl-[1,2,4]triazolo[1,5-a]pyrimidin-6-yl)oxy)pyrrolidin-1-yl)-[3,3′-bipyridin]-6-yl)methyl)morpholine]	
> 25100 nM	2 nM	3.16 nM	12.6 nM	Cc1nc2nc(C)c(O[C@@H]3CCN(c4ccc(-c5cnc(CN6CCOCC6)nc5)cc4)C3)c(C)n2n1 [Example 69, (R)-4-((5-(4-(3-((2,5,7-trimethyl-[1,2,4]triazolo[1,5-a]pyrimidin-6-yl)oxy)pyrrolidin-1-yl)phenyl)pyrimidin-2-yl)methyl)morpholine]	
> 25100 nM	0.794 nM	6.31 nM	10 nM	COCCN1CCN(Cc2ccc(-c3cnc(N4CC[C@@H](Cc5c(C)nc6nc(C)nn6c5C)C4)cn3)cc2)CC1 [Example 42, (R)-6-((1-(5-(4-((4-(2-methoxyethyl)piperazin-1-yl)methyl)phenyl)pyrazin-2-yl)pyrrolidin-3-yl)methyl)-2,5,7-trimethyl-[1,2,4]triazolo[1,5-a]pyrimidine]	
				COc1cc2c(Oc3ccc4[nH]c(C)cc4c3F)ncnc2cc1OCCCN1CCCC1 [AZD2171, reference compound]	33%
> 25100 nM	1 nM	3.98 nM	7.94 nM	Cc1nc2nc(C)c(O[C@@H]3CCN(c4ccc(-c5ccc(CN6CCCOCC6)nn5)cc4)C3)c(C)n2n1 [Example 84, (R)-4-((6-(4-(3-((2,5,7-trimethyl-[1,2,4]triazolo[1,5-a]pyrimidin-6-yl)oxy)pyrrolidin-1-yl)phenyl)pyridazin-3-yl)methyl)-1,4-oxazepane]	
> 25100 nM	1.58 nM	15.8 nM	50.1 nM	Cc1nc2nc(C)c(O[C@@H]3CCN(c4ccc(-c5ccc(CN6CCCCC6)nn5)cc4)C3)c(C)n2n1 [Example 64, (R)-2,5,7-trimethyl-6-((1-(4-(6-(piperidin-1-ylmethyl)pyridazin-3-yl)phenyl)pyrrolidin-3-yl)oxy)-[1,2,4]triazolo[1,5-a]pyrimidine]	
> 25100 nM	3.16 nM	31.6 nM	50.1 nM	COCCN1CCN(Cc2ccc(-c3ccc(N4CC[C@@H](Oc5c(C)nc6nc(C)nn6c5C)C4)cc3)nn2)CC1 [Example 73, (R)-6-((1-(4-(6-((4-(2-methoxyethyl)piperazin-1-yl)methyl)pyridazin-3-yl)phenyl)pyrrolidin-3-yl)oxy)-2,5,7-trimethyl-[1,2,4]triazolo[1,5-a]pyrimidine]	
> 25100 nM	1.26 nM	6.31 nM	20 nM	Cc1nc2nc(C)c(O[C@@H]3CCN(c4ccc(-c5ccc(CN6CCCCCC6)nn5)cc4)C3)c(C)n2n1 [Example 85, (R)-6-((1-(4-(6-(azepan-1-ylmethyl)pyridazin-3-yl)phenyl)pyrrolidin-3-yl)oxy)-2,5,7-trimethyl-[1,2,4]triazolo[1,5-a]pyrimidine]	
> 25100 nM	0.631 nM		12.6 nM	CC(=O)N1CCN(Cc2ccc(-c3cnc(N4CC[C@@H](Cc5c(C)nc6nc(C)nn6c5C)C4)cn3)cc2)CC1 [Example 58, (R)-1-(4-(4-(5-(3-((2,5,7-trimethyl-[1,2,4]triazolo[1,5-a]pyrimidin-6-yl)methyl)pyrrolidin-1-yl)pyrazin-2-yl)benzyl)piperazin-1-yl)ethanone]	
> 25100 nM	0.631 nM	1.58 nM	5.01 nM	Cc1nc2nc(C)c(O[C@@H]3CCN(c4ccc(-c5cnc(CN6CCOCC6)cn5)cc4)C3)c(C)n2n1 [Example 70, (R)-4-((5-(4-(3-((2,5,7-trimethyl-[1,2,4]triazolo[1,5-a]pyrimidin-6-yl)oxy)pyrrolidin-1-yl)phenyl)pyrazin-2-yl)methyl)morpholine]	
> 25100 nM	1.58 nM		63.1 nM	Cc1nc2nc(C)c(C[C@@H]3CCN(c4cnc(-c5ccc(CN6CCN(C)C[C@H]6C)cc5)cn4)C3)c(C)n2n1 [Example 34, 6-(((R)-1-(5-(4-(((R)-2,4-dimethylpiperazin-1-yl)methyl)phenyl)pyrazin-2-yl)pyrrolidin-3-yl)methyl)-2,5,7-trimethyl-[1,2,4]triazolo[1,5-a]pyrimidine]	
> 25100 nM	1.26 nM	3.98 nM	12.6 nM	Cc1nc2nc(C)c(O[C@@H]3CCN(c4cnc(-c5ccc(C(C)N6CCOCC6)cc5)cn4)C3)c(C)n2n1 (single isomer, unassigned) [Example 87]	
> 25100 nM	2 nM	2 nM	10 nM	Cc1nc2nc(C)c(O[C@@H]3CCN(c4ccc(-c5ccc(CN6CCOCC6)cn5)cn4)C3)c(C)n2n1 [Example 74, (R)-4-((6′-(3-((2,5,7-trimethyl-[1,2,4]triazolo[1,5-a]pyrimidin-6-yl)oxy)pyrrolidin-1-yl)-[2,3′-bipyridin]-5-yl)methyl)morpholine]	

Compound	IC50 (MCT1)	IC50 (MCT4 [1])	IC50 (MCT4 [2])	IC50 (MCT4 [3])	tumour regression compared to the vehicle group [4]
Cc1nc2nc(C)c(O[C@@H]3CCN(c4ccc(-c5ccc(CN6C7CCC6CN(C)C7)nn5)cc4)C3)c(C)n2n1 [Example 66, 2,5,7-trimethyl-6-(((3R)-1-(4-(6-((3-methyl-3,8-diazabicyclo[3.2.1]octan-8-yl)methyl)pyridazin-3-yl)phenyl)pyrrolidin-3-yl)oxy)-[1,2,4]triazolo[1,5-a]pyrimidine]	> 25100 nM	2 nM	25.1 nM	50.1 nM	
